Results published in patent US12162848B2, “Inhibitors of protein tyrosine phosphatase, compositions, and methods of use” (BRISTOL-MYERS SQUIBB COMPANY, priority 2022, dated 2024).

Experiments:
PTPN2 enzyme = molecular target: T1, PTPN2 enzyme (Homo sapiens, UniProt P17706); experiment: PhosphoSens PTPN2 biochemical assay; conditions: substrate AQT0264 20 μM, room temperature; read-out: PTPN2 BCHEM IC50
T1 sequence (P17706 1-415): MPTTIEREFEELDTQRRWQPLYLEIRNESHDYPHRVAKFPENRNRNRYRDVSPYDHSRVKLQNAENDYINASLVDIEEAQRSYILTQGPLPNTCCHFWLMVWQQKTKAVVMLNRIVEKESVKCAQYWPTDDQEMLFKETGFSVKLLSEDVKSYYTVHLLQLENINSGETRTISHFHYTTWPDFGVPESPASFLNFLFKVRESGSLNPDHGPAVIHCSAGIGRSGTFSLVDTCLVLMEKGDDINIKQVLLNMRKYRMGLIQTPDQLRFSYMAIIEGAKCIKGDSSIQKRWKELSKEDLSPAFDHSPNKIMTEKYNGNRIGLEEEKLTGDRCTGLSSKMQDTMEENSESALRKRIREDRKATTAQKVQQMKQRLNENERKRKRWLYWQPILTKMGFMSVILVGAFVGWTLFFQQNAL
Procedure: A PhosphoSens® kinase assay was performed as described by the vendor (AssayQuant Technologies, Marlborough, MA). Briefly, 1000×solutions of compounds were prepared in DMSO via serial dilution of the 10 mM DMSO stocks using 3-fold intervals in a 384-well reagent plate. 50 nL of the compound dilution series was then added to the corresponding wells of a 384-well assay plate. […] of 1.25×substrate (AQT0264) in 1× assay buffer (50 mM HEPES pH 7.5, 500 μM EGTA, […] MgCl2, 0.01% Brij-35, 1% Glycerol, 1 mM DTT, and 0.2 mg/mL BSA) was transferred to each well of the assay plate to achieve a final substrate concentration of 20 μM. Finally, […] of 5×PTPN2 enzyme stock was added to each well of the assay plate for a final enzyme concentration of […]. Reaction progress curves were collected by sampling fluorescence intensity at the excitation wavelength 360 nm (λex360) and emission wavelength 480 nm (λem480) every 71 seconds for one hour using a Synergy H4 plate reader (BioTek Instruments/Agilent Technologies, Winooski, VT) at room temperature.

[1] = test system: phosphorylated STAT1 protein levels in B16-F10 cells; experiment: Phospho-STAT1 (Tyr701) HTRF assay in IFN-gamma treated B16-F10 cells; assay type: cell-based; conditions: mouse IFN-gamma 100 ng/mL, 1 hour, read-out: pSTAT1 HTRF B16 EC50
Procedure: B16-F10 cells (ATCC, Manassas, VA, #CRL-6475) were cultured in DMEM growth medium (ThermoFisher Scientific, Waltham, MA, #11995-040) supplemented with 10% heat inactivated FBS (ThermoFisher Scientific, #16140-071) and 1% pen/strep (ThermoFisher Scientific, #15140-122). The cells were seeded into a white opaque 384-well tissue culture treated microplate (PerkinElmer, Waltham, MA, #6007688) at a density of 10,000 cells/well in 20 uL total volume and incubated overnight at 37 C and 5% CO2. 30 nL of compounds dissolved in DMSO were then transferred from a source plate into target wells with the Echo650 acoustic liquid handler (Beckman Coulter, Indianapolis, IN). Negative control wells received 30 nL of DMSO only (0.15% final concentration). Plates were returned to the incubator for 1 hour and then cells treated with either 5 uL of growth medium or 5 uL of growth medium containing 500 ng/mL of recombinant mouse IFN-gamma protein (R&D Systems, Minneapolis, MN, #485-MI/CF, 100 ng/mL final concentration) using the Assist automated pipetting platform (INTEGRA Biosciences, Hudson, NH). Plates were incubated at 37 C for 1 hour and assayed for phosphorylated STAT1 protein levels with the phospho-STAT1 (Tyr701) HTRF kit (Cisbio, Bedford, MA, #63ADK026PEH) according to manufacturer's instructions.

B16-F10 cells = experiment: Cell proliferation assay (CellTiter-Glo) in IFN-gamma treated B16-F10 cells; assay type: cell-based; conditions: 120 h, mouse IFN-gamma 10 ng/mL, read-out: PTPN2 Prolif 5d B16F10 EC50
Procedure: B16-F10 cells (ATCC, Manassas, VA, #CRL-6475) were cultured in DMEM growth medium (ThermoFisher Scientific, Waltham, MA, #11995-040) supplemented with 10% heat inactivated FBS (ThermoFisher Scientific, #16140-071) and 1% pen/strep (ThermoFisher Scientific, #15140-122). The cells were seeded into two white opaque 384-well tissue culture treated microplates (PerkinElmer, Waltham, MA, #6007688) at a density of 100 cells/well in 20 uL total volume and incubated overnight at 37 C and 5% CO2. 30 nL of compounds dissolved in DMSO were then transferred from a source plate into target wells with the Echo650 acoustic liquid handler (Beckman Coulter, Indianapolis, IN). Negative control wells received 30 nL of DMSO only (0.15% final concentration). Plates were returned to the incubator for 1 hour and then cells treated with either 5 uL of growth medium or 5 uL of growth medium containing 50 ng/mL of recombinant mouse IFN-gamma protein (R&D Systems, Minneapolis, MN, #485-MI/CF, 10 ng/mL final concentration) using the Assist automated pipetting platform (INTEGRA Biosciences, Hudson, NH). Plates were incubated at 37 C for 4 days and cell proliferation assayed with the CellTiter-Glo reagent (Promega, Madison, WI, #G7573, 25 uL per well). […] Off-target compound mediated cytotoxicity was identified by checking for growth inhibition in the absence of IFNg.

SMILES | IC50 (PTPN2 enzyme) [µM] | EC50 [1] [µM] | EC50 (B16-F10 cells) [µM]
O=C1CN(c2c(O)cc(-c3cccnc3)cc2F)S(=O)(=O)N1 [EXAMPLE 8, 5-(2-fluoro-6-hydroxy-4-(pyridin-3-yl)phenyl)-1,2,5-thiadiazolidin-3-one 1,1-dioxide] | 0.199 | 2.43 | ≥ 15
O=C1CN(c2c(O)cc(-c3ccncc3)cc2F)S(=O)(=O)N1 [EXAMPLE 9, 5-(2-fluoro-6-hydroxy-4-(pyridin-4-yl)phenyl)-1,2,5-thiadiazolidin-3-one 1,1-dioxide] | 0.322 | ≥ 15 | ≥ 15
O=C1CN(c2c(O)cc(-c3ccc(Cc4ccccc4)cc3)cc2F)S(=O)(=O)N1 [EXAMPLE 10, 5-[4-(4-benzylphenyl)-2-fluoro-6-hydroxy-phenyl]-1,1-dioxo-1,2,5-thiadiazolidin-3-one] | 6.14 | ≥ 15 | ≥ 15
O=C1CN(c2c(O)cc(-c3cccc(-c4ccccc4)c3)cc2F)S(=O)(=O)N1 [EXAMPLE 11, 5-[2-fluoro-6-hydroxy-4-(3-phenylphenyl)phenyl]-1,1-dioxo-1,2,5-thiadiazolidin-3-one] | 1.34 | ≥ 15 | ≥ 15
O=C1CN(c2c(O)cc(-c3ccc(-c4ccc(F)cc4)cc3)cc2F)S(=O)(=O)N1 [EXAMPLE 12, 5-[2-fluoro-4-[4-(4-fluorophenyl)phenyl]-6-hydroxy-phenyl]-1,1-dioxo-1,2,5-thiadiazolidin-3-one] | 1.99 | ≥ 15 | ≥ 15
O=C1CN(c2c(O)cc(-c3ccc(N4CCOCC4)cc3)cc2F)S(=O)(=O)N1 [EXAMPLE 13, 5-[2-fluoro-6-hydroxy-4-(4-morpholinophenyl)phenyl]-1,1-dioxo-1,2,5-thiadiazolidin-3-one] | 0.466 | ≥ 15 | ≥ 15
O=C1CN(c2c(O)cc(-c3cccc(Oc4ccccc4)c3)cc2F)S(=O)(=O)N1 [EXAMPLE 14, 5-[2-fluoro-6-hydroxy-4-(3-phenoxyphenyl)phenyl]-1,1-dioxo-1,2,5-thiadiazolidin-3-one] | 2.21 | ≥ 15 | ≥ 15
CC(C)Cc1ccc(-c2cc(O)c(N3CC(=O)NS3(=O)=O)c(F)c2)cc1 [EXAMPLE 15, 5-[2-fluoro-6-hydroxy-4-(4-isobutylphenyl)phenyl]-1,1-dioxo-1,2,5-thiadiazolidin-3-one] | 2.48 | ≥ 15 | ≥ 15
O=C1CN(c2c(O)cc(-c3cccc(N4CCOCC4)c3)cc2F)S(=O)(=O)N1 [EXAMPLE 16, 5-[2-fluoro-6-hydroxy-4-(3-morpholinophenyl)phenyl]-1,1-dioxo-1,2,5-thiadiazolidin-3-one] | 0.423 | ≥ 15 | ≥ 15
O=C1CN(c2c(O)cc(-c3ccc(C4CC4)cc3)cc2F)S(=O)(=O)N1 [EXAMPLE 17, 5-[4-(4-cyclopropylphenyl)-2-fluoro-6-hydroxy-phenyl]-1,1-dioxo-1,2,5-thiadiazolidin-3-one] | 1.41 | 7.95 | ≥ 15
O=C1CN(c2c(O)cc(-c3cc(-c4ccccc4)cs3)cc2F)S(=O)(=O)N1 [EXAMPLE 18, 5-[2-fluoro-6-hydroxy-4-(4-phenyl-2-thienyl)phenyl]-1,1-dioxo-1,2,5-thiadiazolidin-3-one] | 1.19 | ≥ 15 | ≥ 15
O=C1CN(c2c(O)cc(-c3ccc(CN4CCCC4)cc3)cc2F)S(=O)(=O)N1 [EXAMPLE 19, 5-[2-fluoro-6-hydroxy-4-[4-(pyrrolidin-1-ylmethyl)phenyl]phenyl]-1,1-dioxo-1,2,5-thiadiazolidin-3-one] | 0.483 | ≥ 15 | ≥ 15
O=C1CN(c2c(O)cc(-c3ccnc(-c4ccccc4)c3)cc2F)S(=O)(=O)N1 [EXAMPLE 20, 5-[2-fluoro-6-hydroxy-4-(2-phenyl-4-pyridyl)phenyl]-1,1-dioxo-1,2,5-thiadiazolidin-3-one] | 0.205 | ≥ 15 | ≥ 15
Cc1cc(OCC2CC2)cc(-c2cc(O)c(N3CC(=O)NS3(=O)=O)c(F)c2)c1 [EXAMPLE 21, 5-[4-[3-(cyclopropylmethoxy)-5-methyl-phenyl]-2-fluoro-6-hydroxy-phenyl]-1,1-dioxo-1,2,5-thiadiazolidin-3-one] | 6.96 | ≥ 15 | ≥ 15
CC(C)(O)c1ccc(-c2cc(O)c(N3CC(=O)NS3(=O)=O)c(F)c2)cc1 [EXAMPLE 22, 5-[2-fluoro-6-hydroxy-4-[4-(1-hydroxy-1-methyl-ethyl)phenyl]phenyl]-1,1-dioxo-1,2,5-thiadiazolidin-3-one] | 0.179 | ≥ 15 | ≥ 15
COc1ccc(-c2cc(O)c(N3CC(=O)NS3(=O)=O)c(F)c2)cn1 [EXAMPLE 23, 5-[2-fluoro-6-hydroxy-4-(6-methoxy-3-pyridyl)phenyl]-1,1-dioxo-1,2,5-thiadiazolidin-3-one] | 0.142 | ≥ 15 | ≥ 15
O=C1CN(c2c(O)cc(-c3cnc4ccccc4c3)cc2F)S(=O)(=O)N1 [EXAMPLE 24, 5-[2-fluoro-6-hydroxy-4-(3-quinolyl)phenyl]-1,1-dioxo-1,2,5-thiadiazolidin-3-one] | 0.19 | ≥ 15 | ≥ 15
O=C1CN(c2c(O)cc(-c3ccc(O)nc3)cc2F)S(=O)(=O)N1 [EXAMPLE 26, 5-[2-fluoro-6-hydroxy-4-(6-hydroxy-3-pyridyl)phenyl]-1,1-dioxo-1,2,5-thiadiazolidin-3-one] | 0.01 | 2.18 | 3.11
CN1CCN(c2ccc(-c3cc(O)c(N4CC(=O)NS4(=O)=O)c(F)c3)cn2)CC1 [EXAMPLE 27, 5-[2-fluoro-6-hydroxy-4-[6-(4-methylpiperazin-1-yl)-3-pyridyl]phenyl]-1,1-dioxo-1,2,5-thiadiazolidin-3-one] | 0.457 | ≥ 15 | ≥ 15
COc1cncc(-c2cc(O)c(N3CC(=O)NS3(=O)=O)c(F)c2)c1 [EXAMPLE 28, 5-[2-fluoro-6-hydroxy-4-(5-methoxy-3-pyridyl)phenyl]-1,1-dioxo-1,2,5-thiadiazolidin-3-one] | 0.089 | ≥ 15 | 7.83
CN(C)c1ccc(-c2cc(O)c(N3CC(=O)NS3(=O)=O)c(F)c2)cn1 [EXAMPLE 29, 5-[4-[6-(dimethylamino)-3-pyridyl]-2-fluoro-6-hydroxy-phenyl]-1,1-dioxo-1,2,5-thiadiazolidin-3-one] | 0.09 | ≥ 15 | ≥ 15
